Source: US7550456B2, “Substituted aryl cycloalkanoyl derivatives and methods of their use” (Wyeth, priority 2003, dated 2009)
Counter-ions that a name gives are not always drawn.

Target: T1, human hNET (Homo sapiens, UniProt P23975)
T1 construct: expressed in transfected cells; host or cells: MDCK-Net6 (MDCK cells, stably transfected)
Test: Norepinephrine (NE) uptake assay in MDCK-Net6 cells
Type: cell-based
Conditions: 1 μM test compound, [3H]NE uptake, read-out: % Inhibition @ 1 μM (hNET)
Procedure, shortened: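 Radiolabelled NE uptake was counted by scintillation after NaOH lysis, with 1 µM desipramine defining non-specific uptake. EC50 came from a logistic dose-response fit.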

T1 sequence (P23975 whole entry): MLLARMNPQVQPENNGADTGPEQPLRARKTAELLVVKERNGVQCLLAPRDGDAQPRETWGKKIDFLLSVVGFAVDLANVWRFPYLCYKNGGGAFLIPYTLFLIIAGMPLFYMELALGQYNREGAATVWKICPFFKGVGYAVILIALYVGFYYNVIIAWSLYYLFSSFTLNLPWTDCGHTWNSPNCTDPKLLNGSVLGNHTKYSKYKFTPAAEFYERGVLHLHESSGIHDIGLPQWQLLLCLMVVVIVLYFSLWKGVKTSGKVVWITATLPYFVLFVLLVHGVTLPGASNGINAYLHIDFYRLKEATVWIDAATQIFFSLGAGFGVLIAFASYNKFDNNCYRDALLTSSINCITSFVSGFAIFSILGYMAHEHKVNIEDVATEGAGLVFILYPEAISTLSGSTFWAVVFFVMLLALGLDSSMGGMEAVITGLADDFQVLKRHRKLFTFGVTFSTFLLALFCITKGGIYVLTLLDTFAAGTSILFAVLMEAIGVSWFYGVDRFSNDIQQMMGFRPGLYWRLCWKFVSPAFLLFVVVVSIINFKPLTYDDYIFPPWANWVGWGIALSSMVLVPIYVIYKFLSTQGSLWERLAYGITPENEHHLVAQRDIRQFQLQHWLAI

| inhibition at 1 µM | SMILES |
| --- | --- |
| 20% | COc1ccc(CCOc2ccc(C(CN3CCN(C)CC3)C3(O)CCCCC3)cc2)cc1 (stereo not shown) [Example 466, 1-[1-{{4-[2-(4-methoxyphenyl)ethoxy]phenyl}-2-(4-methylpiperazin-1-yl)ethyl]cyclohexanoldihydrochloride] |
| 0% | CN1CCN(CC(c2ccc(OCC3CCCCC3)cc2)C2(O)CCCCC2)CC1 (stereo not shown) [Example 468, 1-[1-[4-(cyclohexylmethoxy)phenyl]-2-(4-methylpiperazin-1-yl)ethyl]cyclohexanol dihydrochloride] |
| 12% | C[C@@H](Oc1ccc(C(CN2CCN(C)CC2)C2(O)CCCCC2)cc1)c1ccccc1 (stereo partly drawn) [Example 469, 1-(2-(4-methylpiperazin-1-yl)-1-{4-[(1R)-1-phenylethoxy]phenyl}ethyl)cyclohexanol dihydrochloride] |
| 14% | C[C@H](Oc1ccc(C(CN2CCN(C)CC2)C2(O)CCCCC2)cc1)c1ccccc1 (stereo partly drawn) [Example 470, 1-(2-(4-methylpiperazin-1-yl)-1-{4-[(1S)-1-phenylethoxy]phenyl}ethyl)cyclohexanol dihydrochloride] |
